According to PMC11279807, “Modulation of the Antimelanoma Activity Imparted to Artemisinin Hybrids by the Monoterpene Counterpart” (Molecules, 2024):
Where two headings read alike, the source gives them in different places.

What was measured:
WM266 [1] = test: MTT cell viability assay on metastatic melanoma cell line WM266; type: cell-based, human; settings: for IC50: Homo sapiens; for TSI WM266: tumor selectivity index = IC50 on C3PV / IC50 on WM266
Experimental: (§1) The primary human healthy fibroblast C3PV cell line was grown in a culture medium containing 50% Dulbecco Modified Medium (DMEM) and 50% Ham’s F10 supplemented with 10% Fetal Bovine Serum (FBS). […] To all growing media were added 1% Pen/Strep and 1% Glutamine.
(§2) To study the effect of artemisinin derivatives on cell viability, MTT assay was performed. Briefly, C3PV, WM115, and WM266 cell lines were seeded in 96-well plates (3000 cells/well in 100 μL of medium) 24 h before treatment and incubated overnight to allow for cell adherence. Afterward, the medium was replaced with a fresh one containing the appropriate dose of newly synthesized compounds (doses ranging from 0.01 to 1 μM were used for 24 h). The analyses of cell viability were performed at the end of the treatment. Triplicates were made in all experiments. After 24 h of treatment with newly synthesized compounds, the culture medium was replaced with a solution containing 0.5 mg/mL of MTT. After 3 h of incubation in an incubator, the medium was removed, and a lysis solution (10% SDS, 0.6% acetic acid in DMSO) was added to dissolve the formazan crystals. Optical density measurements were performed with a microplate reader EPOCH/2 (Biotek) with 630 nm (background) and a 570 nm filters.
(§3) The IC50 values were determined via non-linear regression, using the GraphPad Prism software package version 8 (GraphPad Software, San Diego, CA, USA). Results were expressed as means of IC50 values ± SD. The TSI values were calculated using the following formula: […]

[2] = Stability by NMR analyses after heating; type: physicochemical; settings: after heating at 45 and 100 °C for 8 and 2 h, respectively
Experimental: Based on cellular results, hybrids 9c, 9f, 10b, and 10f were selected for further studies. Their stability was evaluated by NMR analyses after heating them at 45 and 100 °C for 8 and 2 h, respectively (Supplementary Materials S1).

C3PV = test: MTT cell viability assay on normal fibroblasts C3PV; type: cell-based, human; settings: 24 h treatment, triplicates, read-out: IC50 (µM ± SD) C3PV
Experimental: as §1
as §2, with “Afterward, the medium was replaced with a fresh one containing the appropriate dose of newly synthesized compounds (doses ranging from 0.01 to 1 μM were used for 24 h).” left out
as §3

WM266 [3] = test: Cell viability assay in the presence or absence of DFO on WM266; type: cell-based; settings: Homo sapiens, treatment time 48 h
Source text: To obtain information about the mode of action of compounds 9c, 9f, 10b, and 10f, we repeated the cell viability assays on the metastatic cancer line WM266 in the presence of the Fe^2+ chelating agent deferoxamine (DFO). As mentioned above, Fe^2+ ions trigger endoperoxide bridge opening of the sesquiterpene counterpart by Fenton-like mechanisms, leading to the formation of carbon- and oxygen-centered radicals. Usually, this in cell formation of single-electron reactive species seems to be responsible for the biological activity of ART and its semisynthetic and hybrid derivatives. Sequestration of Fe^2 by DFO generally reduces the efficacy of the compounds studied.
DFO was used to study the mode of action of compounds 9c, 9f, 10b, and 10f on WM266 cell line. Twenty-four hours before treatment, cells were seeded in 96-well plates and incubated overnight. Then, cells were pre-treated with 20 μM of DFO for 1 h. After this time, two washes with PBS were performed, and, subsequently, fresh medium containing different doses of the opportune compound was added for 48h. The analyses of cell viability were performed at the end of treatment, and triplicates were made in all experiments.

WM115 = test: MTT cell viability assay on primary melanoma cell line WM115; type: cell-based, human; settings: for IC50: primary melanoma WM115, MTT, 24 h treatment, triplicates, read-out: IC50 (µM ± SD) WM115; for TSI WM115: tumor selectivity index = IC50 on C3PV / IC50 on WM115
Experimental: as §1, §2, §3

melanoma = settings: metastatic melanoma drug; cited from earlier work
[4] = WM266, 24 h, metastatic melanoma WM266, MTT, 24 h treatment, triplicates, read-out: IC50 (µM ± SD) WM266
[5] = WM266, reference hybrid on WM266, as printed in Table 2, read-out: IC50 ± SD R.H.
[6] = WM266, pre-treated with 20 μM DFO for 1 h, read-out: IC50 ± SD WM266 with DFO
[7] = WM266, without DFO, read-out: IC50 ± SD WM266 without DFO

SMILES	IC50 (WM266 [1]; [4]) [µM]	IC50 (WM266 [1]; [5]) [µM]	TSI WM266 (WM266 [1])	decomposition by 1H NMR [2]	IC50 (C3PV; Homo sapiens, C3PV, 24 h) [µM]	IC50 (WM266 [3]; [6]) [µM]	IC50 (WM266 [3]; [7]) [µM]	IC50 (WM115; Homo sapiens, WM-115, 24 h) [µM]	TSI WM115 (WM115)	IC50 (C3PV) [µM]	IC50 (WM115) [µM]	IC50 (melanoma) [µM]
CC(C)=CCCC(C)CCO[C@H]1O[C@@H]2O[C@@]3(C)CC[C@H]4[C@H](C)CC[C@@H]([C@H]1C)[C@@]24OO3 (stereo partly drawn) [Hybrid 9c]	1.4 ± 0.56	1.4 ± 0.56	260.1	less than 5%	364 ± 7.9	12.7 ± 0.3	1.4 ± 0.56	2.1 ± 0.3	173.4			
CC(C)=CCCC(C)=CCOC1OC2OC3(C)CCC4C(C)CCC(C1C)C24OO3 (stereo not drawn) [Hybrid 9f]	1.9 ± 0.5	1.9 ± 0.5	45.9	less than 5%	87.3 ± 2.5	132.7 ± 0.4	1.9 ± 0.5	3 ± 0.4	29.1			
C=C(C)C1CC=C(COC(=O)CCC(=O)OC2OC3OC4(C)CCC5C(C)CCC(C2C)C35OO4)CC1 (stereo not drawn) [Hybrid 10b]	0.02 ± 0.01	0.02 ± 0.01	1015.0	less than 5%	20.3 ± 5.5	0.31 ± 0.1	0.02 ± 0.01	0.03 ± 0.01	676.7			
CC(C)=CCCC(C)=CCOC(=O)CCC(=O)OC1OC2OC3(C)CCC4C(C)CCC(C1C)C24OO3 (stereo not drawn) [Hybrid 10f]		0.09 ± 0.03	87.8	less than 5%		0.5 ± 0.1	0.09 ± 0.03		19.8	7.9 ± 4.5	0.4 ± 0.04	
Cn1nnc2c(C(N)=O)ncn2c1=O [temozolomide]												< 50
